Consider 67 compounds from US20150246938A1, “NOVEL OLEFIN DERIVATIVE” (SHIONOGI & CO., LTD., priority 2011, published 2015).

The target in this assay is T1, recombinant human ACC2 (Homo sapiens, UniProt O00763).
T1 construct: a cDNA encoding human ACC2 (27-2458) was cloned from human kidney cDNA library (Clontech); His-tag (N); made in house; host or cells: Sf-9 insect cells (Bac-to-Bac baculovirus)
The assay can be described thus: Measurement of inhibitory activity on human ACC2 (MALDI-TOF MS, acetyl CoA to malonyl CoA conversion). Type of assay: biochemical.

Setting [1] is: inhibition activity on human ACC2, untitled table (Table 81), read-out: IC50.
[2] abbreviates: inhibition activity on human ACC2, Table 82, read-out: IC50.
Where [3] appears, read: inhibition activity on human ACC2, Table 84, read-out: IC50.
The mark [4] stands for this setting: inhibition activity on human ACC2, Table 80, read-out: IC50.
Where [5] appears, read: inhibition activity on human ACC2, Table 79, read-out: IC50.

Where two headings read alike, the source gives them in different places.

T1 sequence (O00763 27-2458): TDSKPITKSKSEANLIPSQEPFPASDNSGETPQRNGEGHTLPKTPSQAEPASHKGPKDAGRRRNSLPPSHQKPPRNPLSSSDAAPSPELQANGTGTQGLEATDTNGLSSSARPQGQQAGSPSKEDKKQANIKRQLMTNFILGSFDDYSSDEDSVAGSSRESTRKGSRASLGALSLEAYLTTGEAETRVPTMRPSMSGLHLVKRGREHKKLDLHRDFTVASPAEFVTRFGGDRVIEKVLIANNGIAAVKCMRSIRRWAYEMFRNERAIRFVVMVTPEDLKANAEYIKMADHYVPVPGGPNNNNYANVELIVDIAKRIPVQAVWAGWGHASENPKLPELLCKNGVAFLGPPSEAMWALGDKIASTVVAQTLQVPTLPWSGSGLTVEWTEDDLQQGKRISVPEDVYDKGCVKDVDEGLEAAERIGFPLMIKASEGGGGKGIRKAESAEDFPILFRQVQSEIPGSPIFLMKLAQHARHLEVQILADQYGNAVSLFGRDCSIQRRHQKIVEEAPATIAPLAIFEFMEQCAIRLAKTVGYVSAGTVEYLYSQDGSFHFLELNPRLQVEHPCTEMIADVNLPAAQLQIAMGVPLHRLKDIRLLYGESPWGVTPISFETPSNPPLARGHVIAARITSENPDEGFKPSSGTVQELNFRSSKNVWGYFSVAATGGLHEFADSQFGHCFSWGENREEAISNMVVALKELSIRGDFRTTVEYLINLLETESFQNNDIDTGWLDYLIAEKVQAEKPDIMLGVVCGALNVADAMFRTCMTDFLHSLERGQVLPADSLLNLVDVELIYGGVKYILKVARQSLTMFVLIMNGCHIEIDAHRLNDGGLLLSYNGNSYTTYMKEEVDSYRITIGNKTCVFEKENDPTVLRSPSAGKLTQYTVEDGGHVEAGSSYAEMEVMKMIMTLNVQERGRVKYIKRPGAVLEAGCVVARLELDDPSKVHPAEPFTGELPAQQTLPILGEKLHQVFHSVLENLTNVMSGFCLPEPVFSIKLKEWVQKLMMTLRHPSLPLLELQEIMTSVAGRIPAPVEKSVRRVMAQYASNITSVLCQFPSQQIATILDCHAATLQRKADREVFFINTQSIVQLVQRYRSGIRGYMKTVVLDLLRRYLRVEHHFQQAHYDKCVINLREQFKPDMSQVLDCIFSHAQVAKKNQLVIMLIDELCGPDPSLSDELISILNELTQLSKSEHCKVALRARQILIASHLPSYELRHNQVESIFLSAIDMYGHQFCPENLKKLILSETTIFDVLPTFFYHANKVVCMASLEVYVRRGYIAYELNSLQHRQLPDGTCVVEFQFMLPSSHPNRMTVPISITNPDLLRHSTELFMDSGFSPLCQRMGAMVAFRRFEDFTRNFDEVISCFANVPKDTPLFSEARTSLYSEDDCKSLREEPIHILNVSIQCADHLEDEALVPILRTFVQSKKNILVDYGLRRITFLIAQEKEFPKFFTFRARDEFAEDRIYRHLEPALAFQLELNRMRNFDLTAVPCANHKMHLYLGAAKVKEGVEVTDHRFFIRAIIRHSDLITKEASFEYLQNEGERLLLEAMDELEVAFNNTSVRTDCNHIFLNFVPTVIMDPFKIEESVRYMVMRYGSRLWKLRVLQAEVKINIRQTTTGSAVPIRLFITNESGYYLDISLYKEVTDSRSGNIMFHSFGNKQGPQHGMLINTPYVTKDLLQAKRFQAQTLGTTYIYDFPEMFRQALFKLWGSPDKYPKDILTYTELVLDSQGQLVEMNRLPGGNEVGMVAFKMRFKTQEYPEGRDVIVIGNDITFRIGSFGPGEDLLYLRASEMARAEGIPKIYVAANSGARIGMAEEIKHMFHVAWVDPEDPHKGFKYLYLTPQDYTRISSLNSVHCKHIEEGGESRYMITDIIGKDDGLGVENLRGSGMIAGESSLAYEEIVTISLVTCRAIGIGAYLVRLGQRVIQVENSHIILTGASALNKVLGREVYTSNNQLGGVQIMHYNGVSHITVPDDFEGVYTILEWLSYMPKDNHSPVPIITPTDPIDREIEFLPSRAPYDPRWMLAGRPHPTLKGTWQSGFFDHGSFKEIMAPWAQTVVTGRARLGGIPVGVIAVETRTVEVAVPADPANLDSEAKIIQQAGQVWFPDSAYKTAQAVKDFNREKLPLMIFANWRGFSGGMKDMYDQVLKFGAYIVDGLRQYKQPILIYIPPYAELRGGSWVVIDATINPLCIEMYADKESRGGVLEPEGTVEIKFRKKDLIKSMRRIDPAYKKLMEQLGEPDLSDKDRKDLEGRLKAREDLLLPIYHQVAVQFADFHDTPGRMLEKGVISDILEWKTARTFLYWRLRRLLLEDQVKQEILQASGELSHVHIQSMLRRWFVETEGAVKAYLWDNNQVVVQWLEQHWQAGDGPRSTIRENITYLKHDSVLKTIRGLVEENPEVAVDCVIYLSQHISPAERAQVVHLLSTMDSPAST
Procedure: To express human ACC2, Sf-9 cells were infected with recombinant baculovirus. After infected cells were disrupted, the filtrated lysate was subjected to Ni-affinity chromatography and anion-exchange chromatography. The fractions containing human ACC2 protein were pooled as recombinant human ACC2 solution.
Recombinant human ACC1 and recombinant human ACC2, which were prepared by the method mentioned above, were preincubated with assay buffer solution (50 mM HEPES-KOH (pH 7.4), 10 mM magnesium chloride, 6-10 mM potassium citrate, 4 mM reduced form of glutathione, 1.5 mg/ml bovine serum albumin) for one hour. Then, 0.2 μL of each this invention compound solution (in DMSO) were dispensed to 384-well microplate, 5 μL of the preincubated enzyme solution and 5 μL of substrate solution (50 mM HEPES-KOH (pH 7.4), 1 mM ATP, 0.8 mM acetyl CoA and 25-50 mM potassium bicarbonate) were added to microplate. After centrifugation and shaking, the reaction mixtures were incubated in a humidified box at room temperature for 1 to 3 hours. After the incubation, the enzyme reactions were stopped by the addition of EDTA. Then, after the samples were cocrystallized with CHCA (α-cyano-4-hydroxy cinnamic acid) matrices on MALDI target plate, by using the matrix assist laser deionization time-of-flight mass spectrometer (MALDI-TOF MS), samples were measured in reflector negative mode. Deprotonated ions of acetyl CoA (AcCoA) of substrate and malonyl CoA (MalCoA) of the reaction product were detected, then, the conversion rates of acetyl CoA to malonyl CoA was calculated by the intensity of [MalCoA-H]-/(Intensity of [MalCoA-H]-+Intensity of [AcCoA-H]-) using each signal strength. […] In addition, potassium citrate concentrations in assay buffer solution, potassium hydrogen carbonate concentrations in substrate solution and incubation time were adjusted by each lot of enzyme.

Regarding `CC(=O)N[C@@H](C)/C=C/c1ccc(Oc2ccc3c(c2)OCC(=O)N3CC2CC2)nc1` [Compound I-260], under setting [1], the IC50 was found to be 150 nM.
For `CC#Cc1ccc(Oc2ccc(/C=C/[C@H](C)NC(C)=O)cn2)c(Cl)c1` [Compound I-275], the IC50 under setting [1] was found to be 17 nM.
In the case of `CCCc1ccc(Oc2ccc(/C=C/[C@H](C)NC(C)=O)cn2)cc1C#N` [Compound I-404], the IC50 was determined as 190 nM.
As for `COc1ccc(Oc2ccc(/C=C(\C)C(C)NC(C)=O)cn2)c(Cl)c1` (stereo not shown) [Compound I-270], under setting [1], the IC50 came to 390 nM.
Take `CC(=O)N[C@@H](C)/C=C/c1ccc(Oc2cc(F)cc(OC(C)C)c2)nc1` [Compound I-277]: the IC50 under setting [1] was 230 nM.
Turning to `CCCc1ccc(Oc2ccc(/C=C/[C@H](C)NC(C)=O)cn2)cc1` [Compound I-306], under setting [1], the IC50 turned out to be 24 nM.
Consider `CC(=O)N[C@@H](C)/C=C/c1ccc(Oc2ccc(C3=CCOCC3)cc2Cl)nc1` [Compound I-352], for which the IC50 under setting [2] was determined as 240 nM.
Turning to `CCCc1ccc(Oc2ccc(/C=C(\F)[C@H](C)NC(C)=O)cn2)c(Cl)c1` [Compound I-459], the IC50 under setting [3] came to 12 nM.
With `CCCOc1ccc(Oc2ncc(/C=C/[C@H](C)NC(=O)c3ccnc(N4CCOCC4)c3)s2)c(Cl)c1` [Compound I-165], the IC50 under setting [4] turned out to be 490 nM.
In the case of `CC(=O)N[C@@H](C)/C=C/c1ccc(Oc2cc(OC(C)C)ccc2F)nc1` [Compound I-279], under setting [1], the IC50 is 59 nM.
As to `CC(=O)N[C@@H](C)/C=C/c1cnn(Cc2cc(Cl)c(OCC3CC3)c(Cl)c2)c1` [Compound I-264], the IC50 under setting [1] is 840 nM.
Regarding `C[C@@H](/C=C/c1cnc(Oc2ccc(OCC3CC3)cc2Cl)s1)NC(=O)c1ccnc(CO)c1` [Compound I-237], the IC50 under setting [4] amounted to 87 nM.
In the case of `CCNC(=O)c1cc(C(=O)N[C@@H](C)/C=C/c2cnn(Cc3ccc(OC)cc3Cl)c2)ccn1` [Compound I-317], the IC50 under setting [1] was 350 nM.
Consider `CC(=O)N[C@@H](C)/C=C/c1cnn(Cc2ccc(OCC3CC3)cc2F)c1` [Compound I-67], for which, under setting [5], the IC50 came to 1200 nM.
On to `CCOc1cc(F)c(Oc2ccc(/C=C/[C@H](C)NC(C)=O)cn2)c(Cl)c1` [Compound I-361], for which the IC50 under setting [2] is 36 nM.
In the case of `CC(=O)N[C@@H](C)/C=C/c1ccc(Oc2ccc3sc(C)nc3c2)nc1` [Compound I-424], the IC50 came to 140 nM.
For `CCCc1ccc(Oc2ccc(/C=C/[C@H](C)NC(C)=O)cn2)cn1` [Compound I-269], under setting [1], the IC50 was 120 nM.
Regarding `CCCc1ccc(Oc2ccc(/C=C/[C@H](C)NC(=O)C(=O)OCC)cn2)c(Cl)c1` [Compound I-374], the IC50 under setting [2] came out at 780 nM.
As for `CC(=O)N[C@@H](C)/C=C/c1ccc(Oc2ccc(OCCOC3CCCCO3)cc2Cl)nc1` (stereo partly shown) [Compound I-303], the half-maximal inhibitory concentration (IC50) under setting [1] came to 630 nM.
For the compound `CC(=O)N[C@@H](C)/C=C/c1ccc(Oc2cnc(N3CCC(F)CC3)nc2)nc1` [Compound I-520], the IC50 under setting [3] is 75 nM.
For the compound `CC(=O)N[C@@H](C)/C=C/c1ccc(Oc2ccc(-c3cnccn3)cc2Cl)nc1` [Compound I-412], the IC50 came out at 200 nM.
With `CC(=O)N[C@@H](C)/C=C/c1ccc(Oc2ccc(OCC3CC3)cc2Cl)nn1` [Compound I-56], the IC50 under setting [5] came to 310 nM.
Consider `C[C@@H](/C=C/c1cnc(Oc2ccc(OCC3CC3)cc2Cl)s1)NC(=O)CC#N` [Compound I-73], for which the IC50 under setting [5] came to 53 nM.
`CCNC(=O)c1cc(C(=O)N[C@@H](C)/C=C/c2cnn(Cc3c(Cl)cc(OCC4CC4)cc3Cl)c2)ccn1` [Compound I-321]: under setting [2], the IC50 came out at 29 nM.
As to `COC(=O)CCCC(=O)N[C@@H](C)/C=C/c1cnc(Oc2ccc(OCC3CC3)cc2Cl)s1` [Compound I-94], the IC50 under setting [5] was 140 nM.
In the case of `CC(=O)N[C@@H](C)/C=C/c1cnc(Oc2ccc(OCC3CC3O)cc2Cl)nc1` (stereo partly shown) [Compound I-379], the IC50 was 3700 nM.
Regarding `CC(=O)N[C@@H](C)/C=C/c1cc(Oc2ccc(OCC3CC3)cc2Cl)nn1C` [Compound I-395], the IC50 stood at 4200 nM.
As for `CC(=O)N[C@@H](C)/C=C/c1ccc(Oc2cnc(N3CCCCC3)nc2)nc1` [Compound I-499], under setting [3], the IC50 was 96 nM.
As to `CCOC(=O)c1cc(C(=O)N[C@@H](C)/C=C/c2cnc(Oc3ccc(OCC4CC4)cc3Cl)s2)ccn1` [Compound I-136], under setting [4], the half-inhibitory concentration (IC50) was determined as 12 nM.
For the compound `CSc1ncc(Oc2ccc(/C=C/[C@H](C)NC(C)=O)cn2)cn1` [Compound I-484], the IC50 under setting [3] is 160 nM.
With `CC(=O)N[C@@H](C)/C=C/c1ccc(Oc2ccc(OCC3CC3)c(Cl)c2)nc1` [Compound I-23], under setting [5], the IC50 stood at 5.2 nM.
Regarding `CC(=O)N[C@@H](C)/C=C/c1ccc(Oc2ccc3c(c2)OC(F)(F)O3)nc1` [Compound I-483], under setting [3], the IC50 turned out to be 52 nM.
Regarding `CCCOc1ccc(Oc2ncc(/C=C/[C@H](C)NC(=O)c3ccnc(C(=O)OCC)c3)s2)c(Cl)c1` [Compound I-168], the IC50 under setting [4] amounted to 22 nM.
Take `C[C@@H](/C=C/c1cnc(Oc2ccc(OCC3CC3)cc2Cl)s1)NC(=O)c1ccnc(OCC(=O)O)c1` [Compound I-248]: the IC50 under setting [4] was found to be 580 nM.
On the same count and under the same terms, the same measure for `C[C@@H](/C=C/c1cnc(Oc2ccc(OCC3CC3)cc2Cl)s1)NC(=O)c1ccnc(C(=O)NCCN2CCCC2)c1` [Compound I-215]: 24 nM.
As to `CC(=O)NCC(=O)N[C@@H](C)/C=C/c1cnc(Oc2ccc(OCC3CC3)cc2Cl)s1` [Compound I-78], the IC50 under setting [5] came out at 550 nM.
As to `C[C@@H](/C=C/c1cnn(Cc2ccc(OCC3CC3)cc2Cl)c1)NC(=O)C1CC1` [Compound I-172], the IC50 under setting [4] turned out to be 600 nM.
The same measure, in the same setting: the value for `C[C@@H](/C=C/c1cnc(Oc2ccc(OCC3CC3)cc2Cl)s1)NC(=O)c1ccnc(C(=O)NCCN(C)C)c1` [Compound I-214] was 18 nM.
`CC(=O)N[C@@H](C)/C=C/c1ccc(Oc2ccc(Cc3ccccc3)cc2Cl)nc1` [Compound I-358]: the IC50 under setting [2] was found to be 27 nM.
`CC(=O)N[C@@H](C)/C=C/c1ccc(Oc2ccc(C(C)(F)F)cc2Cl)nc1` [Compound I-328]: the IC50 under setting [2] was 35 nM.
For the compound `CC(C)ONC(=O)c1cc(C(=O)N[C@@H](C)/C=C/c2cnc(Oc3ccc(OCC4CC4)cc3Cl)s2)ccn1` [Compound I-216], under setting [4], the IC50 came out at 69 nM.
In the case of `C[C@@H](/C=C/c1cnc(Oc2ccc(OCC3CC3)cc2Cl)s1)NC(=O)C1CCOCC1` [Compound I-84], the IC50 under setting [5] turned out to be 460 nM.
`CC(=O)N[C@@H](C)/C=C/c1ccc(Oc2ccc3c(c2)OCC3)nc1` [Compound I-448]: the IC50 under setting [3] was found to be 180 nM.
On to `CC(=O)N[C@@H](C)/C=C/c1cnc(Oc2ccc(C(C)(C)C(F)(F)F)cc2Cl)nc1` [Compound I-427], for which the IC50 is 200 nM.
With `CCC(=O)c1ccc(Oc2ncc(/C=C/[C@H](C)NC(C)=O)s2)c(Cl)c1` [Compound I-431], the IC50 under setting [3] turned out to be 85 nM.
For the compound `C/C=C/c1ccc(Oc2ccc(/C=C/[C@H](C)NC(C)=O)cn2)c(Cl)c1` [Compound I-460], under setting [3], the IC50 is 130 nM.
In the case of `CCCOc1ccc(Oc2ncc(/C=C/[C@H](C)NC(=O)C3(C#N)CC3)s2)c(Cl)c1` [Compound I-162], under setting [4], the IC50 was found to be 320 nM.
On the same count and under the same terms, the value for `CCCOc1ccc(Oc2ncc(/C=C/[C@H](C)NC(=O)c3ccncc3F)s2)c(Cl)c1` [Compound I-164] was 850 nM.
Take `CCCc1cc(Cl)c(Oc2ccc(/C=C/[C@H](C)NC(C)=O)cn2)cc1Cl` [Compound I-458]: the IC50 under setting [3] was 26 nM.
`CC(=O)Nc1cc(C(=O)N[C@@H](C)/C=C/c2cnc(Oc3ccc(OCC4CC4)cc3Cl)s2)ccn1` [Compound I-135]: under setting [4], the IC50 was 42 nM.
With `CC(=O)N[C@@H](C)/C=C/c1cnc(Oc2ccc(NC(=O)CC(C)C)c(Cl)c2)nc1` [Compound I-284], under setting [1], the IC50 worked out at 860 nM.
With `CC(=O)N[C@@H](C)/C=C/c1ccc(Oc2ccc(-c3cccc(C)c3)cc2Cl)nc1` [Compound I-343], the IC50 under setting [2] worked out at 46 nM.
Take `CCNC(=O)N[C@@H](C)/C=C/c1cnn(Cc2ccc(OCC3CC3)cc2Cl)c1` [Compound I-196]: the IC50 under setting [4] was determined as 1100 nM.
Take `C[C@@H](/C=C/c1cnc(Oc2ccc(OCC3CC3)cc2Cl)s1)NC(=O)c1ccnc(NCCO)c1` [Compound I-243]: the IC50 under setting [4] is 410 nM.
For `CC(=O)N[C@@H](C)/C=C/c1ccc(Oc2ccc3c(c2)OC(C)(C)C3)nc1` [Compound I-519], under setting [3], the IC50 worked out at 59 nM.
Turning to `CCCc1cc(Cl)c(Oc2ccc(/C=C/[C@H](C)NC(C)=O)cn2)c(Cl)c1` [Compound I-385], the IC50 was determined as 160 nM.
Regarding `CCOc1ccc(Oc2ccc(/C=C/[C@H](C)Nc3cc(C)on3)cn2)c(Cl)c1` [Compound I-203], the IC50 under setting [4] is 69 nM.
In the case of `CCCc1cccc(Oc2ccc(/C=C/[C@H](C)NC(C)=O)cn2)n1` [Compound I-330], the IC50 under setting [2] was 3900 nM.
Same read-out and setting: the value for `CCNC(=O)c1cc(C(=O)N[C@@H](C)/C=C/c2cnn(Cc3c(F)cc(OCC4CC4)cc3F)c2)ccn1` [Compound I-319] was 51 nM.
`CCNC(=O)c1cc(C(=O)N[C@@H](C)/C=C/c2cnn(Cc3ccc(OCC4CC4)cc3Cl)c2)ccn1` [Compound I-233]: the IC50 under setting [4] came to 44 nM.
As for `CCNC(=O)c1cc(C(=O)N[C@@H](C)/C=C/c2cnn(Cc3c(C)cc(C)cc3C)c2)ccn1` [Compound I-315], the IC50 under setting [1] is 3900 nM.
Turning to `COc1cc(C(=O)N[C@@H](C)/C=C/c2cnc(Oc3ccc(OCC4CC4)cc3Cl)s2)ccn1` [Compound I-157], under setting [4], the IC50 came to 260 nM.
Turning to `CCCc1ccc(Oc2ccc(/C=C/[C@H](C)NC(=O)c3ccnc(C(=O)NCCO)c3)cn2)c(Cl)c1` [Compound I-391], the IC50 stood at 47 nM.
Take `CCOc1ccc(Oc2ccc(/C=C(\F)[C@H](C)NC(C)=O)cn2)c(Cl)c1` [Compound I-471]: under setting [3], the IC50 was 16 nM.
In the case of `CCCOc1ccc(Oc2ncc(/C=C/[C@H](C)NC(=O)c3ccnc(N)c3)s2)c(Cl)c1` [Compound I-163], under setting [4], the IC50 worked out at 280 nM.
Turning to `COC(=O)N[C@@H](C)/C=C/c1cnn(Cc2ccc(OCC3CC3)cc2Cl)c1` [Compound I-183], under setting [4], the IC50 came to 660 nM.
For `CCOc1ccc(Oc2ccc(/C=C/[C@H](C)NC(C)=O)nc2)c(Cl)c1` [Compound I-489], under setting [3], the IC50 was 550 nM.

The IC50 is the concentration needed to halve the response being measured.
